The supplement of paper PMC10307832

Key:
Assay in all cases: relative viability (nuclei count vs DMSO), 5 days (fraction); higher = more cells survive
GSK-J4 + Trametinib = compound: CCOC(=O)CCNc1cc(N2CCc3ccccc3CC2)nc(-c2ccccn2)n1 [GSK-J4] + CC(=O)Nc1cccc(-n2c(=O)n(C3CC3)c(=O)c3c(Nc4ccc(I)cc4F)n(C)c(=O)c(C)c32)c1 [Trametinib] (partner 0.02 µM)
Outline: (§1)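 Medians of duplicate plates are given as relative viability. That measure is the nuclei count in treated wells divided by the count in vehicle wells. Counts were taken on 4× images of lung cancer cell lines in 1536-well plates, 5 days after pin-tool dosing the day after seeding with one drug alone or a fixed anchor-drug dose plus five library-drug doses (not always all listed) in √10 steps.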

AZ3146 = compound: CN1CCC(CC1)OC2=CC(=C(C=C2)NC3=NC=C4C(=N3)N(C(=O)N4C)C5CCCC5)OC [AZ3146]
Outline: (§2)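 For viability, nuclei in each treated well were divided by nuclei in vehicle wells and the median across plates was taken. Lung cancer cell lines in 1536-well plates were pinned with five library-drug doses (not always all listed) spaced by √10, cultured 5 days without medium change, and imaged at 4× after Hoechst staining, with plates passing only at control CV below 25% and at least one doubling.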

GSK-J4 = compound: CCOC(=O)CCNc1cc(N2CCc3ccccc3CC2)nc(-c2ccccn2)n1 [GSK-J4]
Outline: as §2

AZ3146 + Navitoclax = compound: CN1CCC(CC1)OC2=CC(=C(C=C2)NC3=NC=C4C(=N3)N(C(=O)N4C)C5CCCC5)OC [AZ3146] + CC1(C)CCC(c2ccc(Cl)cc2)=C(CN2CCN(c3ccc(C(=O)NS(=O)(=O)c4ccc(N[C@H](CCN5CCOCC5)CSc5ccccc5)c(S(=O)(=O)C(F)(F)F)c4)cc3)CC2)C1 [Navitoclax] (partner 0.5 µM)
Outline: as §1

| Cell Line | relative viability (GSK-J4 + Trametinib; first compound 0.5 µM) | relative viability (GSK-J4 + Trametinib; first compound 1.581 µM) | relative viability (GSK-J4 + Trametinib; first compound 5 µM) | relative viability (GSK-J4 + Trametinib; first compound 15.81 µM) | relative viability (GSK-J4 + Trametinib; first compound 50 µM) | relative viability (AZ3146; 0.08 µM) | relative viability (AZ3146; 0.253 µM) | relative viability (AZ3146; 0.8 µM) | relative viability (AZ3146; 2.53 µM) | relative viability (AZ3146; 8 µM) | relative viability (GSK-J4; 0.5 µM) | relative viability (GSK-J4; 1.581 µM) | relative viability (GSK-J4; 5 µM) | relative viability (GSK-J4; 15.81 µM) | relative viability (GSK-J4; 50 µM) | relative viability (AZ3146 + Navitoclax; first compound 0.253 µM) | relative viability (AZ3146 + Navitoclax; first compound 0.8 µM) | relative viability (AZ3146 + Navitoclax; first compound 2.53 µM) | relative viability (AZ3146 + Navitoclax; first compound 8 µM) | relative viability (AZ3146 + Navitoclax; first compound 0.08 µM) |
| --- | --- | --- | --- | --- | --- | --- | --- | --- | --- | --- | --- | --- | --- | --- | --- | --- | --- | --- | --- | --- |
| NCI-H2342 | 0.819 | 0.752 | 0.866 | 0.917 | 0.946 | 0.902 | 0.937 | 1.11 | 0.875 | 0.928 | 0.919 | 1.06 | 0.925 | 1.03 | 1.07 | – | – | – | – | – |
| NCI-H1944 | 0.4 | 0.394 | – | 0.307 | 0.357 | 0.777 | 0.919 | 1.07 | 1.03 | 0.982 | 0.939 | 0.874 | 0.828 | 0.734 | 0.931 | 1.02 | 1 | 1.13 | 1.15 | – |
| SK-LU-1 | 0.468 | 0.499 | 0.385 | 0.43 | 0.383 | 0.944 | 1.07 | 1 | 1.08 | 0.936 | 0.947 | 0.865 | 0.826 | 0.838 | 0.704 | 0.702 | 0.793 | 0.926 | 0.576 | 0.914 |
| HCC-44 | 1.1 | 0.91 | 1.06 | 1.04 | 1.03 | 0.969 | 0.917 | 1.09 | 1.02 | 0.89 | 1.01 | 0.864 | 0.861 | 1.02 | 1.01 | 1.04 | 0.985 | 1.01 | 1.01 | 0.877 |
| 201T | 0.719 | 0.615 | 0.711 | 0.735 | 0.69 | 0.997 | 0.993 | 0.941 | 0.964 | 0.983 | 1.01 | 0.983 | 0.928 | 0.947 | 0.943 | 1.2 | 1.16 | 1.27 | 1.2 | 1.19 |
| IA-LM | – | – | – | – | – | 0.971 | 0.998 | 0.987 | 0.957 | 0.742 | 0.887 | 0.84 | 1.17 | 0.821 | 0.315 | 0.785 | 0.699 | 0.881 | 0.156 | 0.713 |
| NCI-H661 | 0.583 | 0.582 | 0.5 | 0.462 | 0.418 | 1.02 | 0.988 | 0.92 | 0.98 | 1.05 | 0.969 | 0.922 | 0.904 | 0.927 | 0.723 | – | – | – | – | – |
| NCI-H2087 | 0.189 | 0.171 | 0.257 | 0.169 | 0.222 | 0.877 | 1.08 | 1.03 | 1.2 | 0.917 | 0.96 | 0.824 | 0.82 | 1.04 | 0.856 | 1.06 | 1.08 | 1.05 | 0.968 | 1.04 |
| NCI-H647 | 0.521 | 0.393 | 0.357 | 0.445 | 0.499 | 0.777 | 0.919 | 0.94 | 1.07 | 0.92 | 0.966 | 0.832 | 0.742 | 0.886 | 0.936 | 1.07 | 1.16 | 1.1 | 0.893 | 1.06 |
| A-427 | 0.702 | 0.567 | – | 0.559 | 0.552 | 0.963 | 1 | 1.01 | 1.04 | 0.766 | 1 | – | 0.766 | 0.865 | 0.37 | 0.967 | 0.957 | 0.98 | 0.943 | 0.96 |
| NCI-H520 | 0.625 | 0.486 | 0.577 | 0.559 | 0.472 | 0.875 | 0.971 | 0.832 | 1.04 | 0.999 | 0.985 | 0.621 | 0.857 | 0.702 | 0.853 | 1.06 | 1.04 | 1.1 | 0.981 | 1.18 |
| NCI-H1755 | 0.809 | 0.72 | 0.754 | 0.649 | 0.65 | 0.933 | 1.02 | 0.955 | 0.994 | 0.984 | 0.969 | 0.847 | 0.728 | 0.929 | 0.916 | 1 | 0.948 | 1.03 | 1.01 | 0.992 |
| NCI-H1975 | 0.356 | 0.262 | 0.296 | 0.329 | 0.264 | 0.859 | 0.993 | 1.06 | 1.02 | 0.844 | 0.972 | 0.857 | – | 0.953 | 1.09 | 1.18 | 1.14 | 1.17 | 1.01 | 1.19 |
| ChaGo-K-1 | 0.934 | – | 0.939 | 0.841 | 0.808 | 0.942 | 0.885 | 0.964 | 1.04 | 0.741 | 0.986 | – | 0.993 | 0.974 | 0.918 | 1 | 0.897 | 0.996 | 0.672 | 1 |
